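Five compound concentrations were applied to cells in 96-well plates for 48 hours; endpoints were derived by simple linear interpolation of the resulting dose-response curve. GI50 is the concentration that inhibits growth by half.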 Active and inactive are the calls of the source. Rule as the data show it: active = GI50 up to about 1.1 µM and inactive = higher.

Among the test systems are ACHN; SK-MEL-28; SK-OV-3; TK-10; UO-31; SK-MEL-5; SF-539; SR; Malme-3M; HOP-92; KM12; RXF 393; OVCAR-4; COLO 205; HCC 2998; NCI-H460; HOP-62.
What all share (assay): DTP human tumour cell line panel, 48 h

As a reminder, the GI50 is the concentration that inhibits growth by half. Regarding `COC(=O)C(=O)C(C#N)c1ccc(Cl)c(Cl)c1` (stereo not drawn), the GI50 in the assay on ACHN, in the assay with SK-MEL-28, in the assay on SK-OV-3, in the assay on TK-10, in the assay on UO-31 and in the assay on SK-MEL-5 was > 100 µM (inactive) each time. Also, the GI50 in the assay on SF-539, in the assay on SR, in the assay with Malme-3M, in the assay on HOP-92 and in the assay with KM12 was > 100 µM (inactive) throughout.
Turning to `COC(=O)C1=C(CO)C2C=CC1C2` (stereo not drawn), the GI50 with ACHN, in the assay with RXF 393, in the assay with SK-OV-3, with TK-10, with UO-31 and in the assay with OVCAR-4 was > 100 µM (inactive) in each case. Also, the GI50 with COLO 205, in the assay with SK-MEL-5, in the assay on SF-539, in the assay with Malme-3M, with HCC 2998 and in the assay with NCI-H460 was > 100 µM (inactive) throughout. The GI50 with KM12 and in the assay with HOP-62 was > 100 µM (inactive) each time.
As to `c1ccc(C2N=NN(c3ccccc3)C2N2CCCCC2)cc1` (stereo not drawn), the GI50 was > 100 µM (inactive) in the assay on ACHN; > 100 µM (inactive) in the assay on SK-MEL-28; 38.6 µM (inactive) in the assay with SK-OV-3; > 100 µM (inactive) with TK-10; > 100 µM (inactive) with UO-31; > 100 µM (inactive) with OVCAR-4. Also, the GI50 with COLO 205 is > 100 µM (inactive); in the assay with SK-MEL-5, > 100 µM (inactive); in the assay on SF-539, 55.8 µM (inactive); with SR it was > 100 µM (inactive); in the assay with Malme-3M, > 100 µM (inactive); in the assay on HOP-92, 17.3 µM (inactive). In addition, the figures for the GI50 with HCC 2998, in the assay with KM12 and with HOP-62 were > 100 µM (inactive), > 100 µM (inactive) and 42.9 µM (inactive), respectively.
Regarding `Cc1ccc(NC(=O)c2nc(S)nc(N)c2-c2ccccc2C)cc1C`, the GI50 with ACHN, with RXF 393, with SK-MEL-28, in the assay on SK-OV-3, in the assay with TK-10 and in the assay on UO-31 was > 100 µM (inactive) throughout. For the same compound, the GI50 in the assay on OVCAR-4 is > 10 µM (inactive); with COLO 205 it was > 100 µM (inactive); with SK-MEL-5 it was > 100 µM (inactive); with SF-539 it was > 100 µM (inactive); in the assay with Malme-3M, > 100 µM (inactive); with HOP-92 it was > 100 µM (inactive). The GI50 in the assay with NCI-H460 and in the assay with KM12 was > 100 µM (inactive) in each case.
`N#CC1([N+](=O)[O-])C=C1c1ccccc1` (stereo not drawn): the GI50 with ACHN is 38.6 µM (inactive); with SK-OV-3, > 100 µM (inactive); with TK-10 it was > 100 µM (inactive); with UO-31 it was > 100 µM (inactive); in the assay on OVCAR-4 it was > 100 µM (inactive); with COLO 205, > 100 µM (inactive). The GI50 was 57.3 µM (inactive) in the assay with SK-MEL-5; > 100 µM (inactive) with SF-539; 25.2 µM (inactive) in the assay with SR; 63 µM (inactive) in the assay with Malme-3M; 51.2 µM (inactive) in the assay on NCI-H460; > 100 µM (inactive) in the assay on KM12. The GI50 with HOP-62 is > 100 µM (inactive).
Consider `Cc1ccc(NC(=O)CC2SC(Nc3cccc(Cl)c3C)=NC2=O)cc1` (stereo not drawn), for which the GI50 with ACHN is 41 µM (inactive); with SK-MEL-28, 40.9 µM (inactive); in the assay with SK-OV-3 it was > 100 µM (inactive); in the assay with TK-10, 92 µM (inactive); in the assay on UO-31, 22.6 µM (inactive); with OVCAR-4, 28.7 µM (inactive). Moreover, the GI50 with COLO 205 is 64.7 µM (inactive); in the assay on SK-MEL-5, 29.6 µM (inactive); in the assay on SF-539, 53.1 µM (inactive); with Malme-3M, 52.4 µM (inactive); in the assay with HCC 2998 it was 99.8 µM (inactive); with NCI-H460, 96.6 µM (inactive). The GI50 with KM12 is 40.9 µM (inactive); in the assay on HOP-62 it was > 100 µM (inactive).
Regarding `CCCCCCCCCc1cc(=O)c2ccc(OCc3ccccc3)cc2o1`, the GI50 is > 100 µM (inactive) in the assay with ACHN; 96.2 µM (inactive) with RXF 393; > 100 µM (inactive) in the assay on SK-MEL-28; > 100 µM (inactive) in the assay on SK-OV-3; 65.5 µM (inactive) in the assay with TK-10; > 100 µM (inactive) with UO-31. Also, the GI50 is 83.2 µM (inactive) in the assay with OVCAR-4; > 100 µM (inactive) with COLO 205; 97.9 µM (inactive) with SK-MEL-5; 90.8 µM (inactive) with SF-539; 25.8 µM (inactive) in the assay on Malme-3M; > 100 µM (inactive) in the assay on HOP-92. In addition, the GI50 in the assay on HCC 2998 was > 100 µM (inactive); in the assay on NCI-H460 it was 64.4 µM (inactive); in the assay with KM12 it was > 100 µM (inactive); in the assay with HOP-62, > 100 µM (inactive).
In the case of `CC1CCCC(C(=O)/C(=C/c2cccc(Cl)c2)C(=O)C(=O)O)C1` (stereo not drawn), the GI50 with ACHN was 39.4 µM (inactive); in the assay with SK-MEL-28, 37 µM (inactive); in the assay on SK-OV-3, 81.5 µM (inactive); in the assay with TK-10, > 100 µM (inactive); with UO-31, 61.2 µM (inactive); with OVCAR-4, 37.8 µM (inactive). For the same compound, the GI50 in the assay on COLO 205 was 37.3 µM (inactive); with SK-MEL-5, 68.2 µM (inactive); with SF-539, 27.5 µM (inactive); with Malme-3M it was > 100 µM (inactive); in the assay with HOP-92, 39 µM (inactive); in the assay with HCC 2998, 12.8 µM (inactive). Also, the results for the GI50 with NCI-H460, with KM12 and in the assay with HOP-62 were 33 µM (inactive), 15.6 µM (inactive) and > 100 µM (inactive), respectively.
`O=C(CC(=O)N1N=C(n2ccc3ccccc32)CC1c1ccccc1)Nc1ccc(Cl)cc1` (stereo not drawn): the GI50 in the assay on ACHN, in the assay on RXF 393, with SK-MEL-28, with SK-OV-3, in the assay on TK-10 and in the assay on UO-31 was > 100 µM (inactive) throughout. Moreover, the GI50 was > 100 µM (inactive) in the assay on OVCAR-4; > 100 µM (inactive) in the assay with COLO 205; 8.75 µM (inactive) in the assay on SF-539; > 100 µM (inactive) with Malme-3M; 77.6 µM (inactive) in the assay with HOP-92; > 100 µM (inactive) in the assay on HCC 2998. Besides, the GI50 with NCI-H460, in the assay on KM12 and in the assay on HOP-62 was > 100 µM (inactive) throughout.
On to `CC1CCC23COC(=O)C2C(O)CCC3C1(C)CC(O)c1ccoc1` (stereo not drawn), for which the GI50 in the assay with ACHN, in the assay with RXF 393, in the assay on SK-MEL-28, in the assay with SK-OV-3, with TK-10 and in the assay with UO-31 was > 100 µM (inactive) throughout. Moreover, the GI50 in the assay on OVCAR-4, with COLO 205, in the assay with SK-MEL-5, in the assay with SF-539, in the assay on Malme-3M and with HOP-92 was > 100 µM (inactive) throughout. For the same compound, the GI50 with HCC 2998, with NCI-H460, in the assay with KM12 and in the assay with HOP-62 was > 100 µM (inactive) throughout.
For the compound `C[C@]12CCCC(=O)C1(O)C[C@H](C(=O)O)CC2` (stereo partly drawn), the GI50 in the assay on ACHN, with SK-MEL-28, in the assay on SK-OV-3, in the assay with TK-10, with UO-31 and in the assay with OVCAR-4 was > 100 µM (inactive) each time. Besides, the GI50 with COLO 205, in the assay with SK-MEL-5, in the assay on SF-539, in the assay on SR, in the assay with Malme-3M and in the assay with HOP-92 was > 100 µM (inactive) throughout. For the same compound, the GI50 in the assay on HCC 2998, with NCI-H460, in the assay on KM12 and in the assay on HOP-62 was > 100 µM (inactive) throughout.
With `COc1cccc2c1C(=O)c1c(O)c3c(c(O)c1C2=O)C[C@@](O)(C(=O)CO)CC3OC1CC(N(C)CCOCC(OC(C)=O)OC(C)=O)C(O)C(C)O1` (stereo partly drawn), the GI50 in the assay on ACHN, in the assay with RXF 393, with SK-MEL-28, in the assay with SK-OV-3, in the assay on TK-10 and in the assay on UO-31 was > 0.01 µM (active) each time. The GI50 with OVCAR-4, in the assay on SK-MEL-5, in the assay on SF-539, in the assay on Malme-3M, in the assay with HOP-92 and in the assay on HCC 2998 was > 0.01 µM (active) each time. For the same compound, the GI50 with NCI-H460, in the assay with KM12 and with HOP-62 was > 0.01 µM (active) each time.
On to `CC(O)(c1ccc(OCCC[N+](C)(C)C)cc1)C(C)(O)c1ccc(OCCC[N+](C)(C)C)cc1` (stereo not drawn), for which the GI50 in the assay with ACHN, in the assay on RXF 393, in the assay with SK-MEL-28, in the assay on SK-OV-3, in the assay on UO-31 and in the assay on OVCAR-4 was > 100 µM (inactive) throughout. Moreover, the GI50 in the assay with COLO 205, with SF-539, with Malme-3M, in the assay on HOP-92, in the assay with HCC 2998 and in the assay on NCI-H460 was > 100 µM (inactive) in each case. The GI50 in the assay with KM12 and in the assay with HOP-62 was > 100 µM (inactive) each time.

For the origin of these results see ChEMBL document CHEMBL1201862, “PubChem BioAssay data set” (2004).
